The target of assay [1] is T1, human STING (Homo sapiens, UniProt Q86WV6).
T1 construct: made in house; host or cells: E. coli
Kind of assay: Thermal shift assay. The format is binding. The following applies: human STING protein 5 uM; ligand bound vs apo. An excerpt: We sought to develop small molecule compounds with increased STING agonist activity against human STING. GSK reported a series of non-CDN small molecules, represented by compound 1[13], with good human STING agonistic activity. Based on our molecular modeling analysis, along with the reported CDN-STING crystal structures, we designed a novel series of fused tricyclic heterocycle compounds and analyzed their binding to human STING with thermal shift assays and the potency in activation of STING signaling with a reporter cellular assay (Supplementary Table S1). Thermal shift assays measure the difference between apo STING and ligand bound STING in the inflection point at which 50% of protein is thermally unfolded (ΔTm). […] The ability of compounds to activate the IRF reporter gene in the THP1 cells was also evaluated.
The melting temperature (Tm) of human STING was determined by calculating the temperature at the inflection point of the thermal melt curve generated on a Roche LightCycler 480 using 384 plate format and 465–590 nm filter set. […] Florescence was measured while ramping the plate temperature from 20 to 95 °C and the resulting data was processed using ROCHE data analysis software. Delta Tms were calculated by subtracting the Tm of untreated protein from ligand treated samples. […]

The test system of assay [2] is MV4-11 cells. Kind of assay: Annexin V staining by flow cytometry. The class given is cell-based, human. Particulars: MV4-11, 16 h; compared to cytarabine. The procedure: (§1) Figure 5 Cell apoptosis induced by SHR1032 in AML cell lines is independent of type I interferon. (a–d) RNA-Seq analysis of THP1-STING-R232, THP1-STING-KO and MV4-11 AML cells treated with 1 µM of SHR1032 for 4 h. […] (d) ANNEXIN V staining analysis with flow cytometry in MV4-11, MOLM-16, THP1-STING-WT and THP1-STING-KO cells. (e) Cell viability analysis by CellTiter Glo in THP1-IRFAR2-WT or -KO cells.
(§2) Cells were incubated with compounds or DMSO for 16 h in a 6-well plate (0.5 × 10^6 cells/well in 2 ml of media). After incubation, cells were collected and washed once in stain buffer (BD Biosciences). Samples were stained with FITC_Annexin V (BioLegend) for 15 min at room temperature. Then the cells were washed twice and resuspended in 200 µl stain buffer, and analyzed with Guava EasyCyte (Millipore).
In general terms: In flow cytometry, cells or beads pass a laser one at a time.

The subject of assay [3] is THP1-STING-WT cells. Kind of assay: Annexin V staining by flow cytometry. The format is cell-based, human. Particulars: 16 h, compared to cytarabine. As to the method:
as §1, §2

Assay [4] deals with MOLM-16 cells. Put plainly: Annexin V staining by flow cytometry. The class given is cell-based, human. Particulars: MOLM-16, 16 h; compared to cytarabine. The procedure: as §1, §2
In assay [5] the test system is THP1-STING-KO cells. Kind of assay: Annexin V staining by flow cytometry. The format is cell-based, human. Particulars: 16 h. The procedure:
as §1, §2

Assay [6] has as its system THP1-STING-R232 cells. Kind of assay: IFNβ ELISA. The class given is cell-based, human. The following applies: THP1-STING-R232, 5 h, vs ADU-S100. As to the method: (§3) Figure 2 SHR1032 specifically and potently activates STING signaling pathway. IRF luciferase reporter assays in (a) THP1-STING-R232, THP1-STING-H232, THP1-STING-HAQ, and THP1-STING-KO cells. Cells were stimulated for 24 h with the indicated STING compounds and assessed for luciferase activity. IFNβ production and activation of cGAS-STING signaling pathway in (b) human THP1-STING-R232, human PBMCs from a donor homozygous for the R232 variant, cynomolgus PBMC, and mouse RAW164.7 macrophage cells were treated with STING agonists for 5 h. IFNβ in media was quantified by human or mouse ELISA kits respectively. (c) THP1-STING-R232 cells and mouse RAW164.7 macrophage cells were stimulated with 40 µM of ADU-S100 or 10 µM of SHR1032 for the indicated time points. The amount of pTBK1, total TBK1, STING and α-tubulin was measured by western blotting.
Human and Cynomolgous PBMC’s were thawed and spun down in Lymphocyte media (ZENBIO) and resuspended in media to 1.5 x 10^6 cells/ml density. […] Human and monkey IFN-β protein concentration was measured using human IFN-β Quantikine ELISA Kits (R&D Systems) per manufacture’s protocol. Mouse IFN-β was measured using mouse IFN-β Quantikine ELISA Kits (R&D Systems) per manufacture’s protocol. Mouse TNFα, IFN-β and IL-6 in the tumor lysates and plasma was measured by Quantikine ELISA Kits (R&D Systems) per manufacture’s protocol.
(In an ELISA, binding on a coated surface is turned into a signal by an enzyme label.)

Assay [7] has as its system THP1-STING-R232 cells. Kind of assay: Western blot of TBK1 phosphorylation. The following applies: 10 µM SHR1032 vs 40 µM ADU-S100. The class given is cell-based, human. As to the method: as §3
THP1 reporter cells were treated for 24 h with a total of 100 k cells and 150 ul media in each well a 96-well plate. […] Luminescence signal was measured using Tecan infinite M1000. EC50 values were calculated using non-linear regression analysis of GraphPad Prism. Cell growth was monitored by CellTiter-Glo Luminescent Cell Viability Assay (Promega) per manufacture’s protocol. GI50 values were calculated using non-linear regression analysis of GraphPad Prism. […]
(A western blot detects proteins with antibodies after separation by electrophoresis.)

T1 sequence (Q86WV6 155-341 limits assumed): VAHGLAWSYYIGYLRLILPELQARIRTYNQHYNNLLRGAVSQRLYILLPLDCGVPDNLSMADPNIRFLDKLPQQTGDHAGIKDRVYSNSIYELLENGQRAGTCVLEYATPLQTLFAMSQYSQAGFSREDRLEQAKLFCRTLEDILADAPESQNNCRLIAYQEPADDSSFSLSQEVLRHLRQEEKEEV

With `CCn1nc(C)cc1C(=O)Nc1nc2cc(C(N)=O)cc(OC)c2n1CCC[C@H]1COc2cc(C(N)=O)cc3nc(NC(=O)c4cc(C)nn4CC)n1c23` [SHR1032], the “Thermal shift ∆Tm” value in assay [1] is 10.7 °C. The “apoptosis (Annexin V)” value is “much higher level of apoptosis” in assay [2], “comparable level of apoptosis” in assay [3], “much higher level of apoptosis” in assay [4] and “no effect” in assay [5]. The IFNβ induction entry in assay [6] is given as “much higher level of IFNβ”. For the same compound, the TBK1 phosphorylation entry in assay [7] was “higher level of TBK1 phosphorylation than ADU-S100”.

The values are drawn from paper PMC9122897, “SHR1032, a novel STING agonist, stimulates anti-tumor immunity and directly induces AML apoptosis” (Scientific Reports, 2022).
